Experimental data as given in patent US9561234B2, “Methods for treating diseases of the retina” (Allergan, Inc., priority 2010, dated 2017).
Entries after “also recorded” stand apart in the source; their conditions may differ.

Tests used:
[1] = system: IL-8 secretion from RPE cells (ARPE-19); test: IL-8 assay: Poly I:C induced IL-8 secretion from RPE cells; assay type: cell-based; conditions: 1 ug/ml poly I:C, 24 hours; FIG. 1B
Experimental: (§1) ARPE-19 cells from ATCC were grown in DEME/F12 medium supplemented with 10% Fetal Bovine Serum (FBS) and split into 96-well plates at a density of 10,000 cells per well. Cells were incubated overnight in 0.1% FBS medium before addition of compound/drug. Stocks of compounds of interest were made at different concentrations and added to ARPE-19 cells in 0.1% FBS medium for one hour.
After one hour of drug pretreatment, cells were incubated with 1 ug/ml polyl:C for 24 hours. The cell culture supernatant was used to measure IL-8 production with IL-8 ELISA Kit (R&D Systems, D8000C). Error bars, SEM. n=3.

[2] = system: ARPE-19 cells; test: Cell viability assay: protection of RPE cells from tBH oxidative stress; assay type: cell-based; conditions: for PROTECTION (%) AT 10 uM: protection of RPEs from oxidative stress (0.3 mM tBH), ARPE-19 cells
Experimental: as §1
After one hour of compound/drug pretreatment, cells were incubated with 0.3 mM tert-butyl hydroperoxide (tBH) for 3 hours followed by three times of washing and replacement with fresh drug and medium (0.1% FBS medium) for overnight. […] Error bars, SEM. n=3.

[3] = system: C57B6 mice with oxygen-induced retinopathy; test: Oxygen-induced retinopathy (hyperoxia): retinal neovascularization; assay type: in vivo; conditions: gavage once daily P10 through P16; evaluated on P17; FIG. 10
Experimental: Litters of newborn mice and their dams were placed in a 75% oxygen chamber from P7 to P12. The chamber contained enough food and water for 5 days and was opened only to allow drug administration to the animals. The mice were returned to room air with normal oxygen content on P12. Olanzapine in water or VEH (water) was administered once daily by gavage beginning on P10 and continuing through P16. Retinal neovascularization was evaluated on P17 after 5 days of exposure of the animals to room air. Error bars, SEM.
Oxygen-induced retinopathy (OIR)/Hyperoxia was induced in C57B6 mice using the protocol reported by Smith et al. (Smith L E, Wesolowski E, McLellan A, et al. Oxygen-induced retinopathy in the mouse. Invest Ophthalmol Vis Sci. 1994; 35(1):101-111). […] Retinal neovascularization was evaluated on P17 after 5 days of exposure of the animals to room air.
Retinal neovascularization was evaluated by angiography in mice subjected to OIR as described previously (Smith L E, Wesolowski E, McLellan A, et al. Oxygen-induced retinopathy in the mouse. Invest Ophthalmol Vis Sci. 1994; 35(1):101-111). […] Quantification of retinal neovascularization was performed as described previously (Chen J, Connor K M, Aderman C M, Smith L E. Erythropoietin deficiency decreases vascular stability in mice. J Clin Invest. 2008; 118(2):526-533). […]

[4] = system: blue light exposed rats; test: Blue light study: retinal thickness by optical coherence tomography; assay type: in vivo, Sprague-Dawley (SD) rats; conditions: IP once per day for 3 days; OCT 7-10 days post blue light; FIG. 3
Experimental: Drug treatment was started 2 days before blue light exposure. Animals received olanzapine IP injection once per day for 3 days and the last dosing was 1 hour before blue light exposure. Rats were dark adapted for 24 hours before they were exposed to blue light with lux intensity of ˜6-7 k for 4 hours. Right after the blue light exposure, the rats were dark adapted again for another 3 days before returning to normal room light (12-hour light/12-hour dark). Optical coherence tomography (OCT) was used to evaluate the retinal thickness change caused by blue light at 7-10 days post blue light exposure. Error bars, SEM. OS=Left Eye, OD=Right Eye.
(§2) Four to five month old Sprague-Dawley (SD) male rats were used in the following study. Drug treatment was started 2 days before blue light exposure. Animals received olanzapine IP injection once per day for 3 days and the last dosing was 1 hour before blue light exposure.
For intravitreal injection (IVT), animals received olanzapine (having the structure shown below) 1 hour before blue light exposure. For topical administration, the drug was given 24 hours (BID) and one hour (QI) before blue light exposure. Water was used for parallel control vehicle IP/IVT injection or topical administration. Rats were dark adapted for 24 hours before they were exposed to blue light with lux intensity of ˜6-7 k for 4 hours. […]

[5] = system: laser induced choroidal neovascularization in rats; test: Choroidal neovascularization (CNV) assay, laser induced; assay type: in vivo, Brown Norway rats; conditions: i.p. 1 mg/kg once a day for 3 days plus intravitreal day 1, 4 & 6; 11 days after laser; FIG. 11
Experimental: Brown Norway rats (Charles Rivers), weighing 250-300 grams each were used in the study. Drug treatment was started 2 days prior to Laser treatment. Olanzapine was given i.p. (1 mg/kg) once a day for 3 days (day −2, −1 & 0). The last dose on day 0 was delivered about 1 hr before laser treatment. Phosphate buffered saline (PBS) was used for parallel control vehicle IP injection. On day zero of the laser procedure, rat eyes (pupil) were dilated with Tropicamide HCl HCl (1%) and Ak-dilate (10%). Rats were then anesthetized with intramuscular injection of 40 mg/ml Ketamine HCL and 12 mg/ml Xylazine HCl. The fundo's was visualized using a microscope slide coverslip with Refresh Liquigel eye drops as an optical coupling agent. For each animal, 6 laser spots in each eye (360 mW power, 0.07 sec. duration, 50 μm spot size) were made with argon laser (Coherent Inc.; Santa Clara, Ca.) concentrically at approximately equal distances around the optic disc, between every 2 retinal vessels. A single 5-ul volume of the drug (olanzapine) or PBS was injected into the vitreous cavity at day 1, 4 & 6 post-laser photocoagulation procedure. At 11 days after laser treatment, animals were sacrificed by CO2 exposure and CNV formation was assayed as described previously. […] The area of fluorescence was quantified using Metamorph image analysis software (RPI, Natick, Mass.).

[6] = system: blue light exposed rats; test: Electroretinography (ERG) assay after blue light exposure; assay type: in vivo, Sprague-Dawley (SD) rats
Experimental: as §2
(§3) For intravitreal injection (IVT), animals received olanzapine (having the structure shown below) 1 hour before blue light exposure. For topical administration, the drug was given 24 hours (BID) and one hour (QI) before blue light exposure. Water was used for parallel control vehicle IP/IVT injection or topical administration. Rats were dark adapted for 24 hours before they were exposed to blue light with lux intensity of ˜6-7 k for 4 hours. Right after the blue light exposure, the rats were dark adapted again for another 3 days before returning to normal room light (12-hour light/12-hour dark). Optical coherence tomography (OCT) was used to evaluate the retinal thickness change caused by blue light at 7-10 days post blue light exposure. Error bars, SEM. (FIG. 3).
Bilateral Flash Electroretinograms were recorded in SD rats using the Espion E^2 electroretinography system. On the day of ERG, Animals were dark adapted for at least 30 minutes. Their eyes were dilated with Tropicamide HCl (1%) and Ak-dilate (10%). Prior to ERG recording, the animal was anesthetized with intramuscular injection of 40 mg/ml Ketamine HCl and 12 mg/ml Xylazine HCl, and placed onto heated platform. The ground needle was placed in the skin under the arm and the reference needle was place in the skin above the head. Retinae were stimulated using 1 cd.s/m2 flash for an average of 10 traces at 0.1 Hz. Recording filter was set at 300 Hz. ERG responses were analyzed using Espion E^2, and Microsoft excel program. The b-wave amplitude was measured from the trough of the a-wave to the peak of the b-wave, and the a-wave was measured as the difference in amplitude between recording at onset and the trough of the negative deflection. Error bars, SEM. (FIGS. 4, 8, and 9).

[7] = system: blue light exposed rats; test: H&E staining and immuno-histochemistry of rat ocular tissue after blue light exposure; assay type: in vivo, Sprague-Dawley rats; conditions: IP, 2-3 wks after blue light exposure
Experimental: as §2, §3
Sprague-Dawley male rats 2-3 weeks after blue light exposure were euthanized with CO2 and orbits enucleated. Eyes were fixed in Davidson's fixative overnight at room temperature and transferred to 70% ethanol for 24 hrs. Further tissue processing was done by serial dehydration in 80%, 95% & 100% alcohol and Propar, followed by paraffin embedding. Whole rat eyes were transversely cut in the vertical meridian proceeding from nasal to temporal side, using a Microtome (RM2255; Leica Microsystems). Using optic nerve head as the landmark, a total of 45 serial sections with 5 microns/section were collected on 15 glass slides. Slide #s 1, 5, 10 & 15 were deparaffinized and sequentially stained using hematoxylin (nucleus) and eosin (cytoplasm) as per standard protocol to compare photoreceptor/RPE lesion between experimental groups. The rest of the slides were used to determine expressions of Rhodopsin, RPE65 and GFAP using the specific antibodies by standard immune-histochemistry techniques.

## Cc1cc2c(s1)Nc1ccccc1N=C2N1CCN(C)CC1 [Olanzapine, 2-methyl-4-(4-methylpiperazin-1-yl)-10H-benzo[b]thieno[2,3-e][1,4]diazepine]
[1]
  inhibition of Poly I:C induced IL-8 secretion from RPE cells: inhibits
[2]
  PROTECTION (%) AT 10 uM: 116%
[2]; tBH, RPE cells, FIGS. 1A, 2
  protection of RPE cells from oxidative stress (tBH) induced apoptosis / cell death: significantly protects in a dose responsive fashion; also recorded: protect
[3]
  attenuation of hyperoxia induced retinal neovascularization: significantly attenuates
[4]
  protection of superior retinal thickness (OCT): significantly protects
[5]
  inhibition of laser induced choroidal neovascularization: significantly inhibits
[6]; IP once per day for 3 days, ERG 7-10 days post blue light, FIG. 4
  protection of retinal a- and b-waves (ERG): significantly protects
[6]; intravitreal, 0.04, 0.2, or 1 ug/eye, 1 hour before blue light, ERG 7-10 days post, FIG. 8
  prevention of ERG alteration: significantly prevents
[6]; topical ocular dosing 24 hours (BID) and one hour before blue light, ERG 7-10 days post, FIG. 9
  protection of retinal a- and b-wave signals (ERG): significantly protects
[7]; FIG. 5
  protection of outer nuclear layer (H&E staining): significantly protects
[7]; FIG. 6
  protection from retinal rhodopsin loss (immuno-histochemistry): significantly protects
[7]; FIG. 7
  inhibition of GFAP upregulation (immuno-histochemistry): partially inhibits
  protection from RPE65 loss (immuno-histochemistry): significantly protects

## Cc1cc2c(s1)Nc1ccccc1N=C2N1CC[N+](C)([O-])CC1 [Metabolite A, Olanzapine-N-oxide]
[2]
  PROTECTION (%) AT 10 uM: 103%

## Cc1cc2c(s1)Nc1ccccc1N=C2N1CCNCC1 [Metabolite B, N-desmethyl olanzapine]
[2]
  PROTECTION (%) AT 10 uM: 129%

## Clc1ccc2c(c1)N=C(N1CCNCC1)c1ccccc1N2 [n-desmethly clozapine, N-desmethyl clozapine]
[2]
  PROTECTION (%) AT 10 uM: 77%
